Experimental data from patent US20190381337A1, “BORON NEUTRON CAPTURE THERAPY SYSTEM” (NEUBORON MEDTECH LTD., priority 2016, published 2019).

Key:
[1] = test system: U343mga cells; assay: Intracellular retention of boron (Example 4); assay type: cell-based, human; conditions: for Boron content in U343mga cells, 0 h after removal of the boron-containing medium / Boron content in U343mga cells, 2 h after removal of the boron-containing medium / Boron content in U343mga cells, 7 h after removal of the boron-containing medium: 18 hours incubation, 5×10^−4 mol/L boron
Method: U343mga cells were plated on Petri dishes at a cell density of 75% and incubated for 18 hours with 1,4-dihydroxyboron-phenylalanine (BPA) or Phe-BF3 in tissue culture medium. Both boron compounds were added to the tissue culture medium at equimolar concentrations relative to the boron content (5×10^−4 mol/L boron). The incubation was terminated by replacing the boron-containing medium with a boron-free medium. Cell samples were taken at time points 0, 2 and 7 hours, respectively, where the 0 time point represented the time point when the incubation with the boron compound reached just 18 hours.
The cells were washed with cold PBS and immediately harvested by scooping off from the petri dish using rubber policeman, and collected in cold PBS and pelleted by centrifugation. The cell pellets were analyzed for total protein and boron content as described above. With intracellular uptake, the compound of formula (I) retained in the tumor cells was 50% of the total uptake at 7 h after the complete consumption of Ia in the medium.

[2] = test system: U343mga cells; assay: Cell uptake of boron compounds (Example 2); assay type: cell-based, human; conditions: for boron content expressed as a function of the total cellular protein, Trial 1 / boron content expressed as a function of the total cellular protein, Trial 2: 6 hours incubation, 5×10^−4 mol/L boron; for boron content expressed as a function of the total cellular protein, Trial 1: 7.2 μg boron/mL media; for boron content expressed as a function of the total cellular protein, Trial 2: 7.7 μg boron/mL media
Method: (§1) An in vitro test of the Phe-BF3 of the Example 1 uses four different human-derived tumor cell lines U343mga, human liver cancer cell line Hep3B, human breast cancer cell line MCF7 and human Sarcoma cell line 4SS. Cells were plated on uncoated tissue culture dishes and incubated at 37° C. in an incubator with humidified air equilibrated with 5% CO2 (the medium was supplemented with 10% FCS and PEST (Penicillin 100 IU/mL and streptomycin […])). For cell passage, cells were trypsinized with trypsin-EDTA (phosphate buffered saline (PBS) with 0.25% trypsin and 0.02% EDTA, no calcium and magnesium).
U343mga cells were plated on Petri dishes at a cell density of 75% and incubated for 6 hours with 1,4-dihydroxyborylphenylalanine (BPA) or Phe-BF3 dissolved in tissue culture medium. Both boron-containing compounds were added at an equimolar concentration relative to the boron content (5×10^−4 mol/L boron) and dissolved in tissue culture medium. Incubation was terminated by removing the boron containing tissue culture medium and adding cold phosphate buffered saline solution (PBS buffer) in order to wash away excess medium from the cells. Cells were immediately harvested by scooping off from the petri dishes using rubber policeman, and collected in cold PBS and pelleted by centrifugation.
Total protein analysis was performed on cell samples according to the Bradford standard procedure. The precipitated cells were subjected to boron analysis by DC-plasmon atomic emission spectroscopy (DCP-AES). The sample (50-130 mg) was digested with sulfuric acid/nitric acid (1/1) at 60° C. Triton X-100 and water were added to give concentrations of 50 mg tissue/mL, 15% total acid v/v, and 5% Triton X-100 v/v. The boron concentration is based on known control sample.

[3] = test system: U343mga; assay: Uptake of Phe-BF3 by different tumor cells (Example 3); assay type: cell-based, human
Method: as §1
(§2) Four human-derived, different tumor cell lines: U343mga, Hep3B, MCF7, and 4SS were plated on Petri dishes at 40-50% (low) and 90-100% (high) cell densities, and incubated with Phe-BF3 in tissue culture as described above for 6 hours. Incubation was terminated by removing the boron-containing media and adding cold PBS buffer to wash excess media from the cells. Cells were immediately harvested by scooping off from the petri dishes using rubber policeman, and collected in cold PBS and pelleted by centrifugation. Total protein analysis was performed on cell samples according to the Bradford standard procedure (as described above).

[4] = test system: human liver cancer cell line Hep3B; assay: as above; assay type: cell-based; conditions: 6 hours
Method: as §1, §2

[5] = test system: human breast cancer cell line MCF7; assay: as above; assay type: cell-based; conditions: 6 hours
Method: as §1, §2

[6] = test system: human Sarcoma cell line 4SS; assay: as above; assay type: cell-based; conditions: 6 hours
Method: as §1, §2

[7] = test system: mouse fibroblast L-929 cells; assay: Cytotoxicity study, MTT colorimetry (Example 5); assay type: cell-based; conditions: for Relative cell proliferation RGR: 5 mmol/L, MTT
Method: The cell culture fluid containing the peptide bovine serum was incubated at 37 C for 24 hours. The passage cultured mouse fibroblast L-929 cells were used to prepare a cell suspension of 1×10^5 cells/mL, and the cell suspension was seeded on a 96-well cell culture plate (100 μl/well) and cultured in a carbon dioxide incubator at 37° C. for 24 hours. After the cells adhere to the wall, the supernatant was removed, the control solution (in absence of compound Ia) was added, and the culture solution of the test group (Phe-BF3 concentration of 5 mmol/L) was exchanged, and the culture was continued in the carbon dioxide incubator at 37° C. After 2 days, MTT solution was added to continue culture for 4 hours. The original solution was aspirated and DMSO was added and shaken for 10 min. The absorbance value was measured with an enzyme-linked immunometric instrument at a wavelength of 630 nm, and the relative proliferation rate (RGR) of the cells was calculated according to the absorbance according to the formula.

| Compound | Boron content in U343mga cells, 0 h after removal of the boron-containing medium [1] | Boron content in U343mga cells, 2 h after removal of the boron-containing medium [1] | Boron content in U343mga cells, 7 h after removal of the boron-containing medium [1] | boron content expressed as a function of the total cellular protein, Trial 1 [2] | boron content expressed as a function of the total cellular protein, Trial 2 [2] | boron content as a function of the total cellular protein, low cell density ([3]; U343mga, 40-50% cell density, 6 hours) | boron content as a function of the total cellular protein, high cell density ([3]; U343mga, 90-100% cell density, 6 hours) | efficiency as boron carrier ([3]; all four human tumor cell lines at low and high cell densities) | tumor cell uptake, accumulation, and retention compared with BPA ([1]; summary of Examples 2-4, in vitro) | boron content as a function of the total cellular protein, low cell density ([4]; 40-50% cell density) | boron content as a function of the total cellular protein, high cell density ([4]; 90-100% cell density) | boron content as a function of the total cellular protein, low cell density ([5]; MCF7, 40-50% cell density) | boron content as a function of the total cellular protein, high cell density ([5]; MCF7, 90-100% cell density) | boron content as a function of the total cellular protein, low cell density ([6]; 40-50% cell density) | boron content as a function of the total cellular protein, high cell density ([6]; 90-100% cell density) | Relative cell proliferation RGR ([7]; 2 days) | Relative cell proliferation RGR ([7]; 7 days) | cytotoxicity assessment ([7]; graded by RGR (Table 5)) | boron uptake compared with BPA ([2]; 6 hours) |
| --- | --- | --- | --- | --- | --- | --- | --- | --- | --- | --- | --- | --- | --- | --- | --- | --- | --- | --- | --- |
| N[C@@H](CC1(BO)C=CC(BO)=CC1)C(=O)O (stereo partly drawn) [BPA, 1,4-dihydroxyborylphenylalanine, reference compound] | 0.072 μg boron/g cell pellet | 0 μg boron/g cell pellet | 0 μg boron/g cell pellet | 62 | 39 | – | – | – | – | – | – | – | – | – | – | – | – | – | – |
| [NH3+]C(Cc1ccccc1)[B-](F)(F)F (stereo not drawn) [Phe-BF3] | 0.83 μg boron/g cell pellet | 0.56 μg boron/g cell pellet | 0.41 μg boron/g cell pellet | 549 | 421 | 102 μg boron/g cell protein | 178 μg boron/g cell protein | highly efficient boron carrier | superior to BPA in tumor cell uptake, accumulation, and retention | 149 μg boron/g cell protein | 207 μg boron/g cell protein | 101 μg boron/g cell protein | 167 μg boron/g cell protein | 255 μg boron/g cell protein | 343 μg boron/g cell protein | 123% | 102% | no signs of toxicity | better than boron phenylalanine (BPA) in boron uptake |
